Assay [1] has as its target cAMP-dependent protein kinase catalytic subunit alpha (Homo sapiens, UniProt P17612). The experiment in a line: Selectivity interaction (KinomeScan (DiscoverX)) EUB0000695a PRKACA. Particulars: at 100 nM.
Assay [2] has as its target Cyclin-dependent kinase 3 (Homo sapiens) (UniProt Q00526). The assay is described as follows: Selectivity interaction (KinomeScan (DiscoverX)) EUB0000045b CDK3.
Assay [3] has as its target Dual specificity protein kinase CLK3 (Homo sapiens, UniProt P49761). The experiment in a line: Selectivity interaction (KinomeScan (DiscoverX)) EUB0000045b CLK3.
The target of assay [4] is Tyrosine-protein kinase Lck (Homo sapiens, UniProt P06239). The assay is described as follows: Selectivity interaction (Kinase panel (literature)) EUB0001199aCl LCK. The note with it: at 1 µM.
Sequence of Tyrosine-protein kinase Lck (P06239 2-509 limits assumed): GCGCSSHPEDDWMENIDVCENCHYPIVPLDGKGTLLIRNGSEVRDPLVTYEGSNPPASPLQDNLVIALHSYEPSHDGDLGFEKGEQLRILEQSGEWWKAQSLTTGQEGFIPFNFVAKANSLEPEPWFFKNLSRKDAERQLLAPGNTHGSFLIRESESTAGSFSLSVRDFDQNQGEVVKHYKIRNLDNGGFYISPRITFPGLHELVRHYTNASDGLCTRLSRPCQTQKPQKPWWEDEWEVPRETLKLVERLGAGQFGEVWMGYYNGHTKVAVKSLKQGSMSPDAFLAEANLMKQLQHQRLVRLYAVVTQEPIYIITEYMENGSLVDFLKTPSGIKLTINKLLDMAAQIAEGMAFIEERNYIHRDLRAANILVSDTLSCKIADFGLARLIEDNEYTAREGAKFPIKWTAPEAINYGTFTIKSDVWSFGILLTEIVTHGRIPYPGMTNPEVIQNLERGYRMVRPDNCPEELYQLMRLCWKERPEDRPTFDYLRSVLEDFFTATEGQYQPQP
In assay [5] the target is T1, Ephrin type-B receptor 6 (Homo sapiens) (UniProt O15197).
T1 sequence (whole entry): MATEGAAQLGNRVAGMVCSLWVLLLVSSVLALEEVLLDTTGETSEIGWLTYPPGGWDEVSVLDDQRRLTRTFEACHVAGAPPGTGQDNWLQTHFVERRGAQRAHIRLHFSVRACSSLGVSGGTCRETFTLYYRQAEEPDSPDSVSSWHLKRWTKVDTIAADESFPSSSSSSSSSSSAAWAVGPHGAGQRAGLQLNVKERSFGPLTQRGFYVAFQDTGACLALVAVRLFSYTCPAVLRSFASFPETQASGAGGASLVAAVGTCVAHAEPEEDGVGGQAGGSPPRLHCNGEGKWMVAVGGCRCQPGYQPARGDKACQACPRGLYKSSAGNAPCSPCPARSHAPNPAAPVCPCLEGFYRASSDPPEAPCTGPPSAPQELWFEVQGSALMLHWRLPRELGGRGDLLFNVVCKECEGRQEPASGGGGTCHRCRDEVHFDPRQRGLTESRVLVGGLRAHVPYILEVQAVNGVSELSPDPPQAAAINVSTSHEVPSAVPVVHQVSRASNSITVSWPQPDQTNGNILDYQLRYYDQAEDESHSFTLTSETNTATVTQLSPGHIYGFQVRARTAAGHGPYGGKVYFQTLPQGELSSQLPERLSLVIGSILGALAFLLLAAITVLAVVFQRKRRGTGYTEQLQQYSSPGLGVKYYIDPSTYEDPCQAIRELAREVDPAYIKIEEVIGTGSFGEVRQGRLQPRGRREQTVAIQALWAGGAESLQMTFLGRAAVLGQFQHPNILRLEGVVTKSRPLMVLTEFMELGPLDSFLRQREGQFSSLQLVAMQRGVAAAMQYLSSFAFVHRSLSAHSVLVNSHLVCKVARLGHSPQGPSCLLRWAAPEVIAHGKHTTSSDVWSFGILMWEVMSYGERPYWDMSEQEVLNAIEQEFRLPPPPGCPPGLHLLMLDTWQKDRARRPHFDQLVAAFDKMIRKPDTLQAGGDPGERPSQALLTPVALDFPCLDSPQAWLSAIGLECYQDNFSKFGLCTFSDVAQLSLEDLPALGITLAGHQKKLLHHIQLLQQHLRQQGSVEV
The experiment in a line: Selectivity interaction (Ambit KINOMEscan and KiNATiv profiling in Jurkat cells) EUB0000090b EPHB6. The format is cell-based. Particulars: at 1 µM.

Assay [6] concerns the target T2, Serine/threonine-protein kinase DCLK2 (Homo sapiens) (UniProt Q8N568).
T2 sequence (whole entry): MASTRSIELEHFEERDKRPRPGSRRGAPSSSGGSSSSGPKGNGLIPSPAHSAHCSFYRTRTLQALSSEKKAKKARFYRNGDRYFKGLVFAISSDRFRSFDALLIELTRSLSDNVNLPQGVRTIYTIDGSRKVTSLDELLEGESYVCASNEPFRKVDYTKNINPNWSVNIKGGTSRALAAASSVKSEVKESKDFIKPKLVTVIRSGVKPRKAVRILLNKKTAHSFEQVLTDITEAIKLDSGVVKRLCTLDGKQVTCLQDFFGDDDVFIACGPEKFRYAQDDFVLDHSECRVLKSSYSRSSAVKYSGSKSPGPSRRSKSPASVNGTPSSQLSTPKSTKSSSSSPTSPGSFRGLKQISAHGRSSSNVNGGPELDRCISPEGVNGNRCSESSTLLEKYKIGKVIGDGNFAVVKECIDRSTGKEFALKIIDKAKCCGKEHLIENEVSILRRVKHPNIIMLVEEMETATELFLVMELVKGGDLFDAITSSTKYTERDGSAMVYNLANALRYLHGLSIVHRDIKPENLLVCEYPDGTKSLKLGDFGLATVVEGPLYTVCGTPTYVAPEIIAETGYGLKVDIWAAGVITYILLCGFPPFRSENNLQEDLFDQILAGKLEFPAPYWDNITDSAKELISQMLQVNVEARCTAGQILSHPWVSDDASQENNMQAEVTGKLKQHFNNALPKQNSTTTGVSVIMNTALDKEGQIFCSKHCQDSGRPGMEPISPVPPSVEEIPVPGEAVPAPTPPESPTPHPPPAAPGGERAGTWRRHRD
The assay is described as follows: Selectivity interaction (KinomeScan (DiscoverX)) EUB0001049a DCLK2. The note with it: at 1 µM.

For assay [7], the target named is T3, Histone-lysine N-methyltransferase SETD7 (Homo sapiens) (UniProt Q8WTS6).
T3 sequence (whole entry): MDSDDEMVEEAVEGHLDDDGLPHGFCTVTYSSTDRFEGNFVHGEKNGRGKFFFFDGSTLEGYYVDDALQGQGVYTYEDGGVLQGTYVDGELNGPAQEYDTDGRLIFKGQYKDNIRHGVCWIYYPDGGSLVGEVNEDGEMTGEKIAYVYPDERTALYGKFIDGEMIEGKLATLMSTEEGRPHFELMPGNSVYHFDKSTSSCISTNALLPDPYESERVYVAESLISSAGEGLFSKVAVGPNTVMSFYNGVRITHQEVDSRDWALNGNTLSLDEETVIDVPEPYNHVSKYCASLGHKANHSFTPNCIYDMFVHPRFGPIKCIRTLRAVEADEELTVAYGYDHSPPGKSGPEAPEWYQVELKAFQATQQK
The assay is described as follows: Selectivity interaction (Methyltransferase screen (radiometric assays, panel of 8 PRMTs, 21 protein lysine methyltransferases, 3 DNA methyltransferases, and one RNA methyltransferase)) EUB0000272b SETD7.

Assay [8] addresses ATPase family AAA domain-containing protein 2B (Homo sapiens) (UniProt Q9ULI0). The experiment in a line: Selectivity interaction (Human bromodomain panel (DSF assay)) EUB0000233b ATAD2B.

Sequence of Dual specificity protein kinase CLK3 (P49761 whole entry, looked up): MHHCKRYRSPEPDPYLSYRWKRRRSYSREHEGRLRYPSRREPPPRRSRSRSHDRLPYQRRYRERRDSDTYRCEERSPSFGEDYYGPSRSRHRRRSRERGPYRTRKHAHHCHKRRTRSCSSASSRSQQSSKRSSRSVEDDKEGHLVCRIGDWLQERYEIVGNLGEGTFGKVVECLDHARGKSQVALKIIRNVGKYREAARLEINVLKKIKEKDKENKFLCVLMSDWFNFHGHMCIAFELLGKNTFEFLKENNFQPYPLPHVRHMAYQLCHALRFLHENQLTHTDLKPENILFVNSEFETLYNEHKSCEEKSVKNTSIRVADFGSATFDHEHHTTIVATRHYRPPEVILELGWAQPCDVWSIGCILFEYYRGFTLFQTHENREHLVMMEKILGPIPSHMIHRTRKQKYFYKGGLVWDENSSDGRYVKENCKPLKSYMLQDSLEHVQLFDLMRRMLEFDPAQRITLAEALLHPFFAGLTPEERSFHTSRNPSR
Sequence of Cyclin-dependent kinase 3 (Homo sapiens) (Q00526 whole entry, looked up): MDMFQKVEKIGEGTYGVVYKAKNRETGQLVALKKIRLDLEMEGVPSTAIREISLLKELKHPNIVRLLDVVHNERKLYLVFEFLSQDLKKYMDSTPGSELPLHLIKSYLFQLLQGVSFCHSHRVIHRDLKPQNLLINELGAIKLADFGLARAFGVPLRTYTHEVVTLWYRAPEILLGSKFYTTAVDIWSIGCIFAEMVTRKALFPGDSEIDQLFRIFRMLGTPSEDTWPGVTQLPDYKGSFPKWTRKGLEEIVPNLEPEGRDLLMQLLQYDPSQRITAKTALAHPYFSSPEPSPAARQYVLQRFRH
Sequence of ATPase family AAA domain-containing protein 2B (Homo sapiens) (Q9ULI0 whole entry, the tested form may be a part): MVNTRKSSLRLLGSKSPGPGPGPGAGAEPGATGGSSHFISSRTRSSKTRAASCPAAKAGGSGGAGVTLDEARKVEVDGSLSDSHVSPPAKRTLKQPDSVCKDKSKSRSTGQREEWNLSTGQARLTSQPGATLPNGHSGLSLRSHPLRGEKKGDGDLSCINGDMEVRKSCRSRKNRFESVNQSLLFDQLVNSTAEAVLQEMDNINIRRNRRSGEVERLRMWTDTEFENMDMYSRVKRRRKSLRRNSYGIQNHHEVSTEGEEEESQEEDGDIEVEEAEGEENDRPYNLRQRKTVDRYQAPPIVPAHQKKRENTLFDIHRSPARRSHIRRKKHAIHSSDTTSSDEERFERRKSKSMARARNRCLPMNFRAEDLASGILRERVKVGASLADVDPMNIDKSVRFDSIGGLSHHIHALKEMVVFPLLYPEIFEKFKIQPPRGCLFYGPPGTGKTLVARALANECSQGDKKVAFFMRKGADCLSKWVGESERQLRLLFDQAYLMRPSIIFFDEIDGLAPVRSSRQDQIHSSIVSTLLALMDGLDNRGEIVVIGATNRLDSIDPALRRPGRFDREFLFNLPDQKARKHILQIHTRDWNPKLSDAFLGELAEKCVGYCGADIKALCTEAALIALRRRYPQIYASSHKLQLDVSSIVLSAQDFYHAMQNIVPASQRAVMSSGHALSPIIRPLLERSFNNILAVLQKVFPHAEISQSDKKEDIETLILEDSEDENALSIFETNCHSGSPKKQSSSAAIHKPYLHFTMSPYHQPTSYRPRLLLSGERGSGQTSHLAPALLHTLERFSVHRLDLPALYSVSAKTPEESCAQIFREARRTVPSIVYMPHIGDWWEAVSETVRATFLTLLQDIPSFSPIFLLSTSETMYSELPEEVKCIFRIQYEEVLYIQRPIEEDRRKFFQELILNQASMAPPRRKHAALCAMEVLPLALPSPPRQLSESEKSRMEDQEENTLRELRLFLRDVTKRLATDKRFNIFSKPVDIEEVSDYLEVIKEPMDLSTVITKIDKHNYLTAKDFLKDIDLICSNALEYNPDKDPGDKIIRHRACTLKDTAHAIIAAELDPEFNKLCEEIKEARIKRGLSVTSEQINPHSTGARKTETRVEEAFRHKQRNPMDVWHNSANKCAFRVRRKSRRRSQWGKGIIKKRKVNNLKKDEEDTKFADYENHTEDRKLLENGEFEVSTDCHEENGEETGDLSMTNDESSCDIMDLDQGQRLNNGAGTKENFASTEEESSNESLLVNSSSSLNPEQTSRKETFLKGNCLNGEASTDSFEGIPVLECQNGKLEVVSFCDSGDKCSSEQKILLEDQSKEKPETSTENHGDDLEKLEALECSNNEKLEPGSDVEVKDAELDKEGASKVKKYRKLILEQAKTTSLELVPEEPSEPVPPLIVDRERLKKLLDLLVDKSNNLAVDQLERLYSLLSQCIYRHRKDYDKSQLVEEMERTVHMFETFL

Compound `Cc1cc(F)c(C(=O)Nc2cccc(-c3nncn3C(C)C)n2)cc1-n1cnc(C2CC2)c1` gave a % of control in assay [1] of 99%. With `C=CC(=O)Nc1cc(-n2c(=O)ccc3cnc4ccc(-c5ccc(NS(C)(=O)=O)cc5)cc4c32)ccc1C`, the % of control in assay [2] (at 1 µM) came out at 100%; in assay [2] (at 10 µM), 100%; in assay [3] (at 1 µM), 100%; in assay [3] (at 10 µM), 98%. For `CN1Cc2nccc(-c3cn(C)nc3-c3ccc(F)cc3)c2C1=O`, the % of inhibition in assay [4] came to 7%. Regarding `CN(C)C/C=C/C(=O)Nc1ccc(C(=O)N2CCCC(Nc3ncc(Cl)c(-c4c[nH]c5ccccc45)n3)C2)cc1` (stereo unspecified), the % of control in assay [5] was determined as 76%.

`COc1cc(Nc2nc(C)cc(-c3cnn4nc(OC)ccc34)n2)cc(C(F)(F)F)c1` yielded a % of control in assay [6] of 84%. Turning to `Cc1cc(C)cc([C@H]2c3cc(C)ccc3NC(=O)CN2C(=O)c2ccc(Br)s2)c1`, the values for the % of activity in assay [7] (at 1 µM) and in assay [7] (at 10 µM) were 101% and 99%, respectively. In the case of `CN(C)CCCOc1ccc(-c2cc(NCCCn3cccn3)nc(S(C)(=O)=O)n2)cc1`, the dTM in assay [8] is less than 2 K.
